Experimental data from patent US20030232754A1, “Use of GLP-1 peptides” (priority 1996, published 2003).
Where two headings read alike, the source gives them in different places. No end group written: not given here.

How the values were obtained:
[1] = tested on: rats; conditions: cited from earlier work
[2] = tested on: Healthy human volunteers; experiment: Effect of iv infusion on satiety, hunger, fullness, appetite (visual analogue scale) and ad libitum energy intake in a double-blind crossover trial; type: in vivo
Text: Healthy human volunteers (20 subjects) were in a double-blind crossover trial given an iv infusion of 50 pmol/(kg·h) of GLP-1(7-36)amide or saline on separate, but otherwise identical experimental days. The infusion was started at 9.00 and lasted until 15.00. At 9.45 the subjects received a fixed amount of breakfast and at 14.15 they had lunch of an identical composition but ad libitum. The subjects rated their feeling of satiety, hunger, fullness and appetite on a visual analogue scale every half hour. The results are given below:
The energy intake of each subjects was measured. The intakes were 3.9 MJ with GLP-1 and 4.3 MJ with Saline resulting in a p-value of 0.009.

[3] = tested on: Mice; experiment: Appetite suppression in mice: sucrose consumption immediately after ip injection (Example 2); type: in vivo; conditions: mice fasted two days, ip 85 micrograms (3.4 mg/kg) in saline, tested immediately after injection, 10 minute period; p-value 0.002
Protocol: Mice were deprived of their normal food for two days and given free access to a 20% sucrose solution on the first day of food deprivation. After the two day food deprivation period, the mice were injected intraperitoneally with 0.5 ml of a solution containing the test substance. Immediately after injection, individual mice were placed in one of eight 15 cm square test boxes with a stainless steel grid floor and a glass drinking tube which projected into the box. […] Consumption of the sucrose solution was measured over a 10 minute period by electronically recording the total amount of contact with the sucrose solution during the test session. The degree of appetite suppression produced by a given test substance was determined by statistical comparison of the mean duration of sucrose consumption by control (vehicle treated) mice with that of mice treated with a test substance. The degree of appetite suppression in a treated group of mice was expressed as percent difference between the test and control group's response duration means. […]

[4] = tested on: Mice; experiment: Appetite suppression in mice: Complan consumption after subcutaneous injection (Example 4); type: in vivo; conditions: p<0.001
Protocol: The test method was as described in Example 3 except that the mice were pre-exposed to formula milk (Complan®—a nutritionally complete infant milk substitute) for one day, then fasted one day. On the test day, consumption of Complan® was measured for each mouse during a 10 min period.
Mice were tested for appetite suppression by subcutaneous injection of GLP-1(7-36)amide dissolved in phosphate buffered saline.

[5] = iv infusion 50 pmol/(kg·h), 9.00 to 15.00, 20 healthy subjects, rated every half hour, p = 0.007

## GLP-1(1-36)amide (HDEFERHAEGTFTSDVSSYLEGQAAKEFIAWLVKGR-NH2; UniProt P01275 92-127, looked up, fragment) [fragment 1-36 of GLP-1 as C-terminal amide]
[1]; route not stated, Tang-Christensen et al. 1996
  Effect on food intake: no effect

## GLP-1(1-37)
[2]; ad libitum lunch during iv infusion 50 pmol/(kg·h), saline 4.3 MJ, p-value 0.009
  Energy intake: 3.9 mJ
[2]; iv infusion 50 pmol/(kg·h), 9.00 to 15.00, 20 healthy subjects, rated every half hour, p = 0.006
  Satiety (visual analogue scale rating) versus saline: GLP-1 > Saline, p = 0.006
[2]; [5]
  Appetite (visual analogue scale rating) versus saline: GLP-1 < Saline, p = 0.007
  Hunger (visual analogue scale rating) versus saline: GLP-1 < Saline, p = 0.007
[2]; iv infusion 50 pmol/(kg·h), 9.00 to 15.00, 20 healthy subjects, rated every half hour, p = 0.010
  Fullness (visual analogue scale rating) versus saline: GLP-1 > Saline, p = 0.010
[1]; intracerebroventricular administration, Tang-Christensen et al. 1996
  Effect on food intake: profound effect
[1]; intracerebroventricular administration, Turton et al. 1996
  Effect on food intake: profound effect
[1]; peripheral administration, Tang-Christensen et al. 1996
  Effect on food intake: no significant effect

## GLP-1(7-36)amide
[3]
  Suppression of sucrose consumption: 60%
[4]; 1 mg/kg, 30 min after injection
  Suppression of feeding (Complan consumption): 45%
[4]; highest dose tested 20 mg/kg
  Maximum effect, suppression of feeding (Complan consumption): 60%
